Measurements published in patent publication US6740678B2, “Method of treatment of cardiovascular injuries” (Children's Medical Center Corporation, priority 1998, dated 2004).

Key:
Apo E-/-mice [1] = assay: Plaque area at the aortic origin in cholesterol-fed Apo E-/- mice; type: in vivo; details: for Plaque measurements at the aortic origin versus control: early-stage experiment, treated age 6 to 22 weeks, not shown; for Inhibition of plaque growth: age 20 to 36 weeks, [100][1-(median treated-0.25)/(median control-0.25)]
From the text: Male Apo E-/-mice (Jackson Labs, Bangor Me.) were fed a 0.15% cholesterol diet (Western Type #88137, Teklad) from age 6-8 weeks. At 20 weeks of age, ten animals were sacrificed to evaluate the baseline extent of atherosclerosis.
(§1) After 16 weeks of treatment, animals were euthanized with methoxyflurane. A blood sample was obtained from the right ventricle for the analysis of serum cholesterol, performed by an automated calorimetric assay on a Hitachi 917 instrument (Children's Hospital, Boston, Mass.). The heart and aorta were perfusion-fixed with 2% paraformaldehyde and dissected as described (Palinski, W., et al., Arterioscler. Thromb. 14: 605-16, 1994; Tangirala, R. K., et al., J. Lipid Res. 36:2320-8, 1995). Atherosclerotic plaques in the aortas were used for histology and plaque areas were only determined at the aortic origin (Paigen, B., et al., Artherosclerosis 68: 231-40, 1987). However, to document the extent of disease in the total aorta, the unopened aortas were photographed.
(§2) The effects of these angiogenesis inhibitors on late stage lesions were then compared to their effects on early lesions, in which intimal vessels were rarely observed. Animals were treated with endostatin or TNP-470 from age 32 to 48 weeks (late-stage experiment) or from 6 to 22 weeks (early-stage experiment). Plaque involvement was measured at the aortic origin. Since the aortas from early stage animals were not used for immunohistochemistry in these experiments, the extent of atherosclerosis was also measured in the entire aorta (percent surface area of Sudan IV stained-lesions; Paliniski, W., et al., Arteriosclr. Thromb. 14: 605-16, 1994).
(§3) The Apo E-/-mice received 20 mg/kg of endostatin subcutaneously every day.
The fumagillin analogue TNP-470 was provided for these studies by TAP Holdings, Deerfield Ill. An injection solution of TNP-470 (3 mg/ml) was freshly prepared and mice received 30 mg/kg subcutaneously every other day. Control animals received a similar volume of saline or endostatin buffer.
(§4) Plaque Area. To determine the extent of atherosclerosis at the aortic origin, 40 serial sections (8-10 Tm thickness) of the aortic sinus were collected on 10 slides (Paigen, B., et al., Artherosclerosis 68: 231-40, 1987). Every second slide was stained with hematoxylin and eosin for morphometry. The rest were used for immunohistochemistry to count intimal vessels and determine intimal smooth muscle cell contents. Plaque images were captured at 100× magnification with a Hitachi HV-C20 3CCD digital camera and measured with the Leica Q500MC image analysis program (Dong, Z. M., et al., J. Clin. Invest. 102: 145-52, 1998). Lesion area for each animal was reported as the mean intimal cross-sectional area (mm^2). In the early-stage experiment, plaque involvement in the entire aorta was also measured by image analysis as the percentage of aortic surface area covered with lesions (Tangiala, R. K., et al., J. Lipid. Res. 36: 2320-8, 1995; Dong, Z. M., et al., J. Clin. Invest. 102: 145-52, 1998)

[2] = Animal health, weight and tolerability during treatment; type: in vivo, mice
Procedure: Animal health and weight was monitored throughout treatment.
as §3

Apo E-/-mice [3] = assay: Extent of atherosclerosis in the entire aorta (Sudan IV stained lesions, photographed aortas); type: in vivo; details: for Median percent plaque area of the entire aorta (Sudan IV-positive lesions): early-stage experiment, treated age 6 to 22 weeks, control 14.4%; for Plaque surface area on photographed images of the entire aorta: treated 20 to 36 weeks, not shown
From the text: as §1, §2, §4

Apo E-/-mice [4] = assay: Intimal vessels in aortic sinus plaques by immunohistochemistry (CD31, vWf); type: in vivo; details: for Neovascularization (+) aortic sinus plaques (number): of 22 (endostatin) and 27 (TNP-470) plaques, control 7 of 24; for Percentage of aortic sinus plaques that contained any intimal vessels: treated mice, control 29%
Procedure: To detect intimal capillaries, the hearts and portions of the descending aorta with substantial lesions were embedded in paraffin, sectioned (10 μm), digested with 0.02% protease XXIV (Sigma) for 6 minutes at room temperature, and incubated with rabbit polyclonal anti-human vWf antibody (Dako, Carpinteria, Calif., 1:500 dilution) or rat monoclonal anti-mouse CD31 antibody (Pharmigen, San Diego, Calif., 20 Tg/ml). When acetone-fixed frozen sections were stained, the CD31 antibody was used at 5 Tg/ml. The bound antibodies against vWf or CD31 were detected with biotinylated goat anti-rabbit or rabbit anti-rat (mouse absorbed) antibodies (Vector, Burlinghame, Calif., 1:250 dilution) and the avidin-biotin peroxidase complex (ABC standard kit, Vector). A red reaction product was produced with 3-amino-9-ethyl carbazole substrate (AEC, Dako) and sections were counterstained with Gill's hematoxylin (Sigma). Vascular sections incubated with non-immune serum served as negative controls. Positive staining of the endothelium on the lumen and in adventitial capillaries served as an internal control. Intimal vessels were identified under high power (400×) and counted when both an endothelial cell nucleus and lumen were seen and when the vessel was also observed in an adjacent section.
as §4

Apo E-/-mice [5] = assay: Intimal smooth muscle cell content of aortic sinus lesions; type: in vivo; details: median (range), control 20.4
Procedure: Smooth muscle cells were identified with a monoclonal IgG2a antibody against human smooth muscle cell I actin (Dako, M0851; Nakashima, Y., et al, Arteriocler. Thromb. 14: 133-40, 1994). Sections were immersed in 0.1 M sodium citrate, pH 6.0 and heated for 10 minutes in the microwave. Primary antibody was bound to sections at 3 Tg/ml and then visualized with biotinylated anti-mouse IgG2a antibody (1:200 dilution, Amersham RPN1181) and the ABC method described above. The adjacent medial layer of vessels served as positive control.
Intimal smooth muscle cell content. To determine if angiogenesis inhibitor treatments affected smooth muscle cell migration or proliferation in lesions, two slides from the middle of the aortic sinus were stained for smooth muscle cell α actin. For each animal, the number of intimal smooth muscle cells and total cell nuclei were counted in 8 non-overlapping fields. A smooth muscle cell was counted only if it stained for smooth muscle cell α actin and its cell nucleus was seen. The mean percentage of smooth muscle cells relative to total cells was determined for each animal.

angiogenesis = details: corneal micropocket assay; Ingber 1990; cited from earlier work
Apo E-/-mice [6] = assay: Plaque cell density of aortic sinus lesions; type: in vivo; details: aortic sinus plaques, median (range), control 1183
Procedure: Plaque cell density. Cell densities in aortic sinus plaques were evaluated to determine if endostatin or TNP-470 treatments affected lesion cellularity. Cell nuclei in the intima of the aortic sinus plaques were counted at three mid-lesion levels (slides 4, 6, and 8). Cell density was reported as the number of cells per intimal area (cells/mm^2).

primary tumor growth = details: 20 mg/kg per day s.c.; Boehm 1997; cited from earlier work
[7] = first experiment, treated age 20 to 36 weeks, endostatin 20 mg/kg s.c. daily, TNP-470 30 mg/kg s.c. every other day, control 0.751, baseline 0.250
[8] = late-stage experiment, treated age 32 to 48 weeks, control 0.584
[9] = second experiment, treated 20 to 36 weeks, control 0.690

## O-chloracetyl-carbamoylfumagillol [TNP-470]
Apo E-/-mice [1]
  Plaque measurements at the aortic origin versus control: no difference
Apo E-/-mice [1]; first experiment
  Inhibition of plaque growth: 70%
Apo E-/-mice [1]; [7]
  Median plaque area at the aortic origin: 0.402 mm^2
Apo E-/-mice [1]; [8]
  Median plaque area at the aortic origin: 0.448 mm^2
Apo E-/-mice [1]; [9]
  Median plaque area at the aortic origin: 0.370 mm^2
[2]; all studies, control 91%
  Percentage of animals available for analysis: 89%
[2]; treated age 20 to 36 weeks, control 8 g
  Weight gained during treatment: 4 g
[2]; treated age 20 to 36 weeks, control 35 g
  Median weight after treatment: 31 g
[2]; treated age 32 to 48 weeks, control 35 g
  Final weight: 33 g
Apo E-/-mice [3]
  Median percent plaque area of the entire aorta (Sudan IV-positive lesions): 11.7%
  Plaque surface area on photographed images of the entire aorta: noticeable reduction
Apo E-/-mice [4]
  Neovascularization (+) aortic sinus plaques (number): 0
  Percentage of aortic sinus plaques that contained any intimal vessels: 0%
Apo E-/-mice [5]
  SMC (%), median smooth muscle cell content of aortic sinus lesions: 19.8 (14.6-23.5) %
angiogenesis
  Inhibition of angiogenesis: 70%

## endostatin
Apo E-/-mice [1]
  Plaque measurements at the aortic origin versus control: no difference
Apo E-/-mice [1]; first experiment
  Inhibition of plaque growth: 85%
Apo E-/-mice [1]; [7]
  Median plaque area at the aortic origin: 0.321 mm^2
Apo E-/-mice [1]; [8]
  Median plaque area at the aortic origin: 0.422 mm^2
Apo E-/-mice [1]; [9]
  Median plaque area at the aortic origin: 0.475 mm^2
[2]; 20 mg/kg s.c. every day
  Tolerability of injections: tolerated the injections
[2]; mouse, in vivo
  Percentage of animals available for analysis: 92%
Apo E-/-mice [3]
  Median percent plaque area of the entire aorta (Sudan IV-positive lesions): 9.6%
  Plaque surface area on photographed images of the entire aorta: noticeable reduction
Apo E-/-mice [4]
  Neovascularization (+) aortic sinus plaques (number): 1
  Percentage of aortic sinus plaques that contained any intimal vessels: 5%
Apo E-/-mice [5]
  SMC (%), median smooth muscle cell content of aortic sinus lesions: 19.4%
Apo E-/-mice [5]; listed as Endostatin
  SMC (%), median smooth muscle cell content of aortic sinus lesions: 19.4 (16.2-22.7) %
Apo E-/-mice [6]
  Cell Density, median: 1645 cells/mm^2
Apo E-/-mice [6]; listed as Endostatin
  Cell Density, median: 1646 (962-2361) cells/mm^2
Primary tumor growth
  Inhibition of primary tumor growth: over 95%
